Source: patent US7553838B2, “Mitotic kinesin inhibitors” (Merck & Co. Inc., priority 2004, dated 2009)

Target: T1, human poly-histidine tagged KSP motor domain (KSP(367H)) (Homo sapiens, UniProt P52732)
T1 construct: were used to amplify the motor domain and the neck linker region; made in house; host or cells: E. coli BL21 (DE3), pRSETa
T1 sequence (P52732 18-359 limits assumed): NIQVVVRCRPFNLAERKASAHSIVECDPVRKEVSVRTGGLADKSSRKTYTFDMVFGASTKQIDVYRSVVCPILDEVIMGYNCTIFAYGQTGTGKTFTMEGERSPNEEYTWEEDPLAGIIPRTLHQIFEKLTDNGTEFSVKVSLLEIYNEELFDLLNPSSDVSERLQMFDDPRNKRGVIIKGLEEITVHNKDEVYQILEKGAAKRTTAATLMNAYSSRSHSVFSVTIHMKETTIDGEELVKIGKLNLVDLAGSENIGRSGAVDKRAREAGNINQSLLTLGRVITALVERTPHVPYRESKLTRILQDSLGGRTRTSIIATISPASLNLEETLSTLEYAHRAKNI
Test: Kinesin ATPase In Vitro Assay
Assay type: biochemical
Settings: microtubules, 1 mM ATP, 23° C.; free phosphate by quinaldine red/ammonium molybdate
Excerpt: I. Kinesin ATPase In Vitro Assay
Cloning and expression of human poly-histidine tagged KSP motor domain (KSP(367H))
Plasmids for the expression of the human KSP motor domain construct were cloned by PCR using a pBluescript full length human KSP construct (Blangy et al., Cell, vol. 83, pp 1159-1169, 1995) as a template. The N-terminal primer 5′-[…] (SEQ.ID.NO.: 1) and the C-terminal primer 5′-[…] […] (SEQ.ID.NO.: 2) were used to amplify the motor domain and the neck linker region. The PCR products were digested with AseI and XhoI, ligated into the NdeI/XhoI digestion product of pRSETa (Invitrogen) and transformed into E. coli BL21 (DE3).
Cells were grown at 37° C. to an OD600 of 0.5. […]
The kinesin motor domain is incubated with microtubules, 1 mM ATP (1:1 MgCl2: Na-ATP), and compound at 23° C. in buffer containing 80 mM K-HEPES (pH 7.0), 1 mM EGTA, 1 mM DTT, 1 mM MgCl2, and 50 mM KCl. […] Free phosphate from the ATP hydrolysis reaction is measured via a quinaldine red/ammonium molybdate assay by adding 150 μl of quench C buffer containing a 2:1 ratio of quench A:quench B. Quench A contains 0.1 mg/ml quinaldine red and 0.14% polyvinyl alcohol; quench B contains 12.3 mM ammonium molybdate tetrahydrate in 1.15 M sulfuric acid. The reaction is incubated for 10 minutes at 23° C., and the absorbance of the phospho-molybdate complex is measured at 540 nm.

SMILES: CC(C(=O)N1N=C(c2cc(F)ccc2F)CC1(CO)c1ccccc1)N1CCN(C)CC1 (racemic) [Compound 3-4, {3-(2,5-difluorophenyl)-1-[2-(4-methylpiperazin-1-yl)propanoyl]-5-phenyl-4,5-dihydro-1H-pyrazol-5-yl}methanol]
- IC50: ≤ 50 µM
